Experimental findings from US6696457B1, “Morphinoid compounds” (SmithKline Beecham p.l.c., priority 1999, dated 2004) are described below.

Data set [1] has as its target T1, human delta opioid receptor (h-DOR/CHO) (Homo sapiens, UniProt P41143).
T1 construct: expressed in transfected cells
Kind of data set: cAMP bioassay: inhibition of forskolin-stimulated cAMP in h-DOR/CHO cells. The data set is classed as cell-based. The protocol: The delta agonistlantagonist activity of the compounds of the present invention is determined in the cAMP bioassay in CHO cell lines stably expressing the human delta opioid receptor (h-DOR/CHO).
For the cAMP assay whole h-DOR/CHO cells were incubated with test compounds in Krebs-Ringer 200 mM, buffered with HEPES, containing (mM): NaCl (125), KCl (5), KH2PO4 (0.4), MgSO4 (1.2), CaCl2 (1.2), NaHCO3(25), glucos (12) and IBMX (1). Cells were treated with forskolin […] to stimulate cAMP synthesis.
The cAMP content was determined using a double antibody [^125I]-cAMp radioimmunoassay (Amersham RPA 509). The data were normalised to protein content.

The nature of data set [2]: metabolic stability: intrinsic clearance in liver microsomes. The format is in vitro ADME, human. The conditions noted are these: 0.5 uM compound, 0.5 mg/ml microsomal protein, 37° C., 30 minutes, NADPH regenerating system. The protocol: The metabolic stability of the compounds of the invention was determined in the following manner: the compounds were incubated (37° C.) at 0.5 uM over 30 minutes with microsomal protein (at a concentration of 0.5 mg/ml) and an NADPH regenerating system (cofactor); the incubation volume was made up to a total of 1 mL with 50 mM potassium phosphate buffer (pH 7.4).
All of the incubation components, apart from cofactor, were pre-incubated for approximately 5 minutes then the reaction was started by the addition of cofactor solution. 50 uL samples were removed from the incubation at 3 minute intervals and placed into 200 uL of acetonitrile (containing an Internal Standard) to precipitate the microsomal protein and terminate the reaction.
All samples were analysed by LC/MS for parent compound and Internal Standard (I.S) and the results calculated as peak area ratios: compound/I.S.
The peak area ratios were plotted against time and intrinsic clearance values were calculated from the fitted exponential decay curve:
CLint (mL/min/g liver)=(k·V·microsomal yield)/[protein] […]
k=rate constant from the exponential decay curve
V=incubation volume (1 mL) microsomal yield=standard microsomal protein yield from 1 g liver (52.5 mg) [protein]=protein concentration in each incubation (0.5 mg/mL); a solution containing 0.5 uM of the compound under study was incubated with 0.5 mg of liver microsomal protein over 30 min at 37° C. Samples were taken, protein precipitated with acetonitrile and centrifuged prior HPLC-MS analysis.

Data set [3] in a line: in vivo clearance and absolute bioavailability.

Structures can show the parent of a compound that is named as a salt.

Broadly, the IC50 is the point on the concentration scale where inhibition reaches its midpoint. Low values mean higher potency, high ones lower potency. In general, melting point refers to the temperature, or range, at which the solid turns liquid.

T1 sequence (P41143 whole entry): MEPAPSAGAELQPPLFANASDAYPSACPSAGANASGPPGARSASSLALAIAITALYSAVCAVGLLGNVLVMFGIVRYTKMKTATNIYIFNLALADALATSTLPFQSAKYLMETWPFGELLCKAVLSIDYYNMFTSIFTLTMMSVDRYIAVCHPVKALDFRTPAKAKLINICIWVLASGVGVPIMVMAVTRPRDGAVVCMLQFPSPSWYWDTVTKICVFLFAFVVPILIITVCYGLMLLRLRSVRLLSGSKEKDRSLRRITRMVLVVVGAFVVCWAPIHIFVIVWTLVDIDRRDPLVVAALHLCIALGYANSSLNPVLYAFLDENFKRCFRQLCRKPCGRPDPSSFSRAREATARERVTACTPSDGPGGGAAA

Consider `Cc1c(C(=O)N(Cc2ccccc2)C(C)C)[nH]c2c1C[C@@]1(O)[C@H]3Cc4ccccc4[C@@]1(CCN3)C2` [Example 2, [10R,4bR-(4b beta,9a beta)]-7-[(N-benzyl-N-isopropyl)aminocarbonyl]-8-methyl-4b,5,9,9a, 10,11-hexahydro-9a-hydroxy-(6H)-10,4b-(iminoethano)phenanthro-[3,2-b]pyrrole], for which the IC50 in data set [1] was found to be 1.15 nM. The “antagonism of the agonist activity by the selective delta antagonist naltrindole” value in data set [1] (naltrindole 100 nM, h-DOR/CHO cells) is “completely antagonised”.
`CCN(C(=O)c1[nH]c2c(c1C)C[C@@]1(O)[C@H]3Cc4ccccc4[C@@]1(CCN3)C2)c1ccccc1` [Example 8, [10R,4bR-(4b beta,9a beta)]-7-[(N-phenyl-N-ethyl)aminocarbonyl]-4b,5,9,9a, 10,11-hexahydro-9a-hydroxy-(6H)-8-methyl-10,4(iminoethano)-phenanthro[3,2-b]pyrrole]: the “in vitro Clearance (human microsomes) CL” value in data set [2] worked out at 5.9 ml/min/g liver.
Turning to `Cc1c(C(=O)CC(C)C)[nH]c2c1C[C@@]1(O)[C@H]3Cc4ccccc4[C@@]1(CCN3)C2` [Example 7, [10R,4bR-(4b beta,9a beta)]-7-isobutylcarbonyl-8-methyl4b,5,9,9a,10,11-hexahydro-9a-hydroxy-(6H)-10,4b-(iminoethano)phenanthro[3,2-b]pyrrole], the melting point was 170 to 175 °C. Moreover, in data set [2], the “in vitro Clearance (human microsomes) CL” value is recorded as less than 0.6 ml/min/g liver.
As for `CCN(Cc1ccccc1)C(=O)c1[nH]c2c(c1C)CC1(O)C3Cc4ccccc4C1(CCN3)C2` (stereo not drawn) [Example 5, [10R,4bR-(4b beta,9a beta)]-7-(N-benzyl-N-ethyl)aminocarbonyl-8-methyl-4b,5,9,9a, 10,11-hexahydro-9a-hydroxy-(6H)-10,4b-(iminoethano)phenanthro[3,2-b]pyrrole], in data set [2], the “in vitro Clearance (human microsomes) CL” value is on record as 2.0 ml/min/g liver.
As to `Cc1c(C(=O)N(Cc2ccccc2)C(C)C)[nH]c2c1CC1C3Cc4ccccc4C1(CCN3)C2` (stereo not drawn) [Example 4, [10R,4bS-(4b beta,9a beta)]-7-(N-isopropyl-N-benzyl)aminocarbonyl-8-methyl-4b,5,9,9a, 10,11-hexahydro-(6H)-10-,4b-(iminoethano)phenanthro[3,2-b]pyrrole], in data set [2], the “in vitro Clearance (human microsomes) CL” value is recorded as 3.3 ml/min/g liver.
Regarding `Cc1c(C(=O)N(C(C)C)C(C)C)[nH]c2c1CC1(O)C3Cc4ccccc4C1(CCN3)C2` (stereo not drawn) [Example 1, [10R,4bR-(4b beta,9a beta)]-7-(N,N-diisopropyl)aminocarbonyl-8-methyl-4b,5,9,9a, 10,11-hexahydro-9a-hydroxy-(6H)-10,4b-(iminoethano)phenanthro[3,2-b]pyrrole], the “in vitro Clearance (human microsomes) CL” value in data set [2] is recorded as 1.3 ml/min/g liver.
On to `Cc1c(C(=O)N2CCc3ccccc3C2)[nH]c2c1CC1(O)C3Cc4ccccc4C1(CCN3)C2` (stereo not drawn) [Example 6, [10R,4bR-(4b beta,9a beta)]-7-(1,2,3,4-tetrahydroisoquinolin-2-yl)carbonyl-8-methyl-4b,5,9,9a, 10,11-hexahydro-9a-hydroxy-(6H)-1 0,4b-(iminoethano)phenanthro[3,2-b]pyrrole], for which the “in vitro Clearance (human microsomes) CL” value in data set [2] is less than 0.6 ml/min/g liver.
As to `CCN(Cc1ccccc1)C(=O)c1c(C)c2c(n1C)CC13CCNC(Cc4ccccc41)C3C2` (stereo not drawn) [Example 11, [10R,4bS-(4b beta,9a beta)]-7-(N-ethyl-N-benzyl)aminocarbonyl-6,8-dimethyl-4b,5,9,9a,10,11-hexahydro-(6H)-10-,4b-(iminoethano)phenanthro[3,2-b]pyrrole], the “in vitro Clearance (human microsomes) CL” value in data set [2] is recorded as 13.0 ml/min/g liver.
Same read-out and setting: as for “[10R,4bR-(4bb,9ab)]-7-(N,N-diisopropyl)aminocarbonyl-8,14-dimethyl4b,5,9,9a,10,11-hexahydro9a-hydroxy-(6H)-10,4b-(iminoethano)phenanthro[3,2-b]pyrrole. [Example 19]”, the figure is 5.7 ml/min/g liver.
With `CCN(CC)C(=O)c1[nH]c2c(c1C)C[C@@]1(O)[C@H]3Cc4ccccc4[C@@]1(CCN3)C2` [Example 3, [10R,4bR-(4b beta,9a beta)]-7-(N,N-diethyl)aminocarbonyl-8-methyl-4b,5,9,9a, 10,11-hexahydro-9a-hydroxy-(6H)-10,4b-(iminoethano)phenanthro[3,2-b]pyrrole], in data set [3], the “in vivo Clearance CL” value came out at 27 ± 2 mL/min/kg. Further, in data set [3] (ipv), the “in vivo Absolute bioavailability F ipv” value was found to be 60 ± 7%. Besides, in data set [2], the “in vitro Clearance (human microsomes) CL” value stood at 0.8 ml/min/g liver.
Consider `Cc1c(C(=O)N(Cc2ccccc2)C(C)C)[nH]c2c1C[C@@]1(O)[C@H]3Cc4ccccc4[C@@]1(CCN3)C2` (as salt: hydrochloride) [Example 2, [10R,4bR-(4b beta,9a beta)]-7-[(N-benzyl-N-isopropyl)aminocarbonyl]-8-methyl-4b,5,9,9a, 10,11-hexahydro-9a-hydroxy-(6H)-10,4b-(iminoethano)phenanthro-[3,2-b]pyrrole], for which the melting point is greater than 250 °C.
In the case of `Cc1c(C(=O)N2CCc3ccccc3C2)[nH]c2c1CC1(O)C3Cc4ccccc4C1(CCN3C)C2` (stereo not drawn) [Example 21, [10R,4bR-(4b beta,9a beta)]-7-(1,2,3,4-tetrahydroisoquinolin-2-yl)carbonyl-8,14-dimethyl-4b,5,9,9a,10,11-hexahydro-9a-hydroxy-(6H)-10,4b-(iminoethano)phenanthro-[3,2-b]pyrrole], the “in vitro Clearance (human microsomes) CL” value in data set [2] was found to be 6.0 ml/min/g liver.
The same measure, in the same setting: as for “[10R,4bS-(4b beta,9a beta)]-7-(N-ethyl-N-phenyl)aminocarbonyl-8-methyl-4b,5,9,9a, 10,11-hexahydro-(6H)-10,4b-(iminoethano)phenanthro[3,2-b]pyrrole [Example 9]”, the figure is 4.5 ml/min/g liver; as for `Cc1c2c(n(C)c1C(=O)N(Cc1ccccc1)C(C)C)CC13CCNC(Cc4ccccc41)C3(O)C2` (stereo not drawn) [Example 10, [10R,4bS-(4b beta,9a beta)]-7-(N-benzyl-N-isopropyl)aminocarbonyl-6,8-dimethyl-4b,5,9,9a, 10,11-hexahydro-9a-hydroxy-(6H)-10,4b-(iminoethano)-phenanthro[3,2-b]pyrrole], 5.2 ml/min/g liver.
